Assays:
rice flat sedge = assay: Test Example 3: herbicidal effect by foliage application, Wagner pot (Table 18, symbol E); format: in vivo, rice flat sedge (Cyperus iria); conditions: 320 g/ha
In short: (§1)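 Plants were sown in alluvial soil held under 0.1–0.5 cm standing water and grown 14 days in a greenhouse at 25–30 °C. An emulsifiable formulation, water-diluted to the set dose, was then sprayed onto the foliage, and effects were scored three weeks later using previously defined criteria.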

lambsquarters [1] = assay: Test Example 5: herbicidal effect by foliage application, plastic box (Table 20, symbol O); format: in vivo, lambsquarters (Chenopodium album); conditions: foliage application, AAH 320 g/ha, three weeks after application
In short: (§2)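 Plants sown in sterilized diluvial soil and grown 14 days in a greenhouse at 25° C to 30° C, then sprayed on the foliage with the compound's emulsion diluted in water to a predetermined herbicide amount. Injury to weeds and crops scored three weeks after application on a visual rating scale.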

persian speedwell [2] = assay: Test Example 4: herbicidal effect by soil treatment (Table 19, symbol R); format: in vivo, Persian speedwell (Veronica persica); conditions: AAH 320 g/ha
In short: (§3)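 Seeds were sown in sterilized diluvial soil and covered with about 1.5 cm of soil. An emulsion formulation diluted with water to a predetermined herbicide amount was sprayed evenly onto the soil surface. Plants grew in a greenhouse at 25° C. to 30° C., and the effect was scored three weeks after application using criteria from an earlier test.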

Italian ryegrass [3] = assay: Test Example 5: herbicidal effect by foliage application, plastic box (Table 20, symbol K); format: in vivo, Italian ryegrass (Lolium multiflorum); conditions: foliage application, AAH 320 g/ha, three weeks after application
In short: as §2

velvetleaf [4] = assay: Test Example 5: herbicidal effect by foliage application, plastic box (Table 20, symbol M); format: in vivo, velvetleaf (Abutilon theophrasti); conditions: foliage application, AAH 320 g/ha, three weeks after application
In short: as §2

wild oat [5] = assay: Test Example 5: herbicidal effect by foliage application, plastic box (Table 20, symbol I); format: in vivo, wild oat (Avena fatua); conditions: foliage application, AAH 320 g/ha, three weeks after application
In short: as §2

green foxtail [6] = assay: Test Example 5: herbicidal effect by foliage application, plastic box (Table 20, symbol G); format: in vivo, green foxtail (Setaria viridis); conditions: foliage application, AAH 320 g/ha, three weeks after application
In short: as §2

chickweed [7] = assay: Test Example 5: herbicidal effect by foliage application, plastic box (Table 20, symbol P); format: in vivo, common chickweed (Stellaria media); conditions: foliage application, AAH 320 g/ha, three weeks after application
In short: as §2

windgrass [8] = assay: Test Example 4: herbicidal effect by soil treatment (Table 19, symbol L); format: in vivo, windgrass (Apera spica-venti); conditions: AAH 320 g/ha
In short: as §3

barnyard grass [9] = assay: Test Example 5: herbicidal effect by foliage application, plastic box (Table 20, symbol H); format: in vivo, barnyard grass (Echinochloa crus-galli); conditions: foliage application, AAH 320 g/ha, three weeks after application
In short: as §2

barnyard grass [10] = assay: Test Example 3: herbicidal effect by foliage application, Wagner pot (Table 18, symbol H); format: in vivo, barnyard grass (Echinochloa crus-galli); conditions: 320 g/ha
In short: as §1

green foxtail [11] = assay: Test Example 4: herbicidal effect by soil treatment (Table 19, symbol G); format: in vivo, green foxtail (Setaria viridis); conditions: AAH 320 g/ha
In short: as §3

windgrass [12] = assay: Test Example 5: herbicidal effect by foliage application, plastic box (Table 20, symbol L); format: in vivo, windgrass (Apera spica-venti); conditions: foliage application, AAH 320 g/ha, three weeks after application
In short: as §2

barnyard grass [13] = assay: Test Example 4: herbicidal effect by soil treatment (Table 19, symbol H); format: in vivo, barnyard grass (Echinochloa crus-galli); conditions: AAH 320 g/ha
In short: as §3

chickweed [14] = assay: Test Example 4: herbicidal effect by soil treatment (Table 19, symbol P); format: in vivo, common chickweed (Stellaria media); conditions: AAH 320 g/ha
In short: as §3

southern crabgrass [15] = assay: Test Example 4: herbicidal effect by soil treatment (Table 19, symbol F); format: in vivo, southern crabgrass (Digitaria ciliaris); conditions: AAH 320 g/ha
In short: as §3

redroot pigweed [16] = assay: Test Example 4: herbicidal effect by soil treatment (Table 19, symbol N); format: in vivo, redroot pigweed (Amaranthus retroflexus); conditions: AAH 320 g/ha
In short: as §3

redroot pigweed [17] = assay: Test Example 5: herbicidal effect by foliage application, plastic box (Table 20, symbol N); format: in vivo, redroot pigweed (Amaranthus retroflexus); conditions: foliage application, AAH 320 g/ha, three weeks after application
In short: as §2

Chinese sprangletop = assay: Test Example 3: herbicidal effect by foliage application, Wagner pot (Table 18, symbol D); format: in vivo, chinese sprangletop (Leptochloa chinensis); conditions: 320 g/ha
In short: as §1

velvetleaf [18] = assay: Test Example 4: herbicidal effect by soil treatment (Table 19, symbol M); format: in vivo, velvetleaf (Abutilon theophrasti); conditions: AAH 320 g/ha
In short: as §3

blackgrass [19] = assay: Test Example 4: herbicidal effect by soil treatment (Table 19, symbol J); format: in vivo, blackgrass (Alopecurus myosuroides); conditions: AAH 320 g/ha
In short: as §3

southern crabgrass [20] = assay: Test Example 5: herbicidal effect by foliage application, plastic box (Table 20, symbol F); format: in vivo, southern crabgrass (Digitaria ciliaris); conditions: foliage application, AAH 320 g/ha, three weeks after application
In short: as §2

lambsquarters [21] = assay: Test Example 4: herbicidal effect by soil treatment (Table 19, symbol O); format: in vivo, lambsquarters (Chenopodium album); conditions: AAH 320 g/ha
In short: as §3

persian speedwell [22] = assay: Test Example 5: herbicidal effect by foliage application, plastic box (Table 20, symbol R); format: in vivo, Persian speedwell (Veronica persica); conditions: foliage application, AAH 320 g/ha, three weeks after application
In short: as §2

Italian ryegrass [23] = assay: Test Example 4: herbicidal effect by soil treatment (Table 19, symbol K); format: in vivo, Italian ryegrass (Lolium multiflorum); conditions: AAH 320 g/ha
In short: as §3

blackgrass [24] = assay: Test Example 5: herbicidal effect by foliage application, plastic box (Table 20, symbol J); format: in vivo, blackgrass (Alopecurus myosuroides); conditions: foliage application, AAH 320 g/ha, three weeks after application
In short: as §2

wild oat [25] = assay: Test Example 4: herbicidal effect by soil treatment (Table 19, symbol I); format: in vivo, wild oat (Avena fatua); conditions: AAH 320 g/ha
In short: as §3

| Compound | herbicidal effect on E (rice flat sedge), rating 0-5 (rice flat sedge) | O: lambsquarters, herbicidal effect (lambsquarters [1]) | R: persian speedwell, herbicidal effect rating (persian speedwell [2]) | K: Italian ryegrass, herbicidal effect (Italian ryegrass [3]) | M: velvetleaf, herbicidal effect (velvetleaf [4]) | I: wild oat, herbicidal effect (wild oat [5]) | G: green foxtail, herbicidal effect (green foxtail [6]) | P: chickweed, herbicidal effect (chickweed [7]) | L: windgrass, herbicidal effect rating (windgrass [8]) | H: barnyard grass, herbicidal effect (barnyard grass [9]) | herbicidal effect on H (barnyard grass), rating 0-5 (barnyard grass [10]) | G: green foxtail, herbicidal effect rating (green foxtail [11]) | L: windgrass, herbicidal effect (windgrass [12]) | H: barnyard grass, herbicidal effect rating (barnyard grass [13]) | P: chickweed, herbicidal effect rating (chickweed [14]) | F: southern crabgrass, herbicidal effect rating (southern crabgrass [15]) | N: redroot pigweed, herbicidal effect rating (redroot pigweed [16]) | N: redroot pigweed, herbicidal effect (redroot pigweed [17]) | herbicidal effect on D (Chinese sprangletop), rating 0-5 (Chinese sprangletop) | M: velvetleaf, herbicidal effect rating (velvetleaf [18]) | also measured |
| --- | --- | --- | --- | --- | --- | --- | --- | --- | --- | --- | --- | --- | --- | --- | --- | --- | --- | --- | --- | --- | --- |
| CCCC(=O)Oc1c(OC)nn(C)c(=O)c1-c1c(-c2ccc(C#N)cc2)sc2ccccc12 [1-171] | 4 (Herbicidal rate of 70% or more and less than 90%) | 4 (Herbicidal rate of 70% or more and less than 90%) | 4 (Herbicidal rate of 70% or more and less than 90%) | 0 (Herbicidal rate of 5% or less (almost no effect)) | 4 (Herbicidal rate of 70% or more and less than 90%) | 0 (Herbicidal rate of 5% or less (almost no effect)) | 0 (Herbicidal rate of 5% or less (almost no effect)) | 5 (Herbicidal rate of 90% or more (almost completely withered)) | 0 (Herbicidal rate of 5% or less (almost no effect)) | 0 (Herbicidal rate of 5% or less (almost no effect)) | 3 (Herbicidal rate of 40% or more and less than 70%) | 0 (Herbicidal rate of 5% or less (almost no effect)) | 0 (Herbicidal rate of 5% or less (almost no effect)) | 0 (Herbicidal rate of 5% or less (almost no effect)) | 5 (Herbicidal rate of 90% or more (almost completely withered)) | 5 (Herbicidal rate of 90% or more (almost completely withered)) | 5 (Herbicidal rate of 90% or more (almost completely withered)) | 5 (Herbicidal rate of 90% or more (almost completely withered)) | 0 (Herbicidal rate of 5% or less (almost no effect)) | 0 (Herbicidal rate of 5% or less (almost no effect)) | J: blackgrass, herbicidal effect rating (blackgrass [19]): 0 (Herbicidal rate of 5% or less (almost no effect)); F: southern crabgrass, herbicidal effect (southern crabgrass [20]): 0 (Herbicidal rate of 5% or less (almost no effect)); O: lambsquarters, herbicidal effect rating (lambsquarters [21]): 3 (Herbicidal rate of 40% or more and less than 70%); R: persian speedwell, herbicidal effect (persian speedwell [22]): 4 (Herbicidal rate of 70% or more and less than 90%); K: Italian ryegrass, herbicidal effect rating (Italian ryegrass [23]): 0 (Herbicidal rate of 5% or less (almost no effect)); J: blackgrass, herbicidal effect (blackgrass [24]): 0 (Herbicidal rate of 5% or less (almost no effect)); I: wild oat, herbicidal effect rating (wild oat [25]): 0 (Herbicidal rate of 5% or less (almost no effect)) |
| COc1cc(F)ccc1-c1sc2ccccc2c1-c1c(O)c(OC)nn(C)c1=O [1-176] | 5 (Herbicidal rate of 90% or more (almost completely withered)) | 5 (Herbicidal rate of 90% or more (almost completely withered)) | 5 (Herbicidal rate of 90% or more (almost completely withered)) | 3 (Herbicidal rate of 40% or more and less than 70%) | 5 (Herbicidal rate of 90% or more (almost completely withered)) | 4 (Herbicidal rate of 70% or more and less than 90%) | 5 (Herbicidal rate of 90% or more (almost completely withered)) | 5 (Herbicidal rate of 90% or more (almost completely withered)) | 5 (Herbicidal rate of 90% or more (almost completely withered)) | 5 (Herbicidal rate of 90% or more (almost completely withered)) | 4 (Herbicidal rate of 70% or more and less than 90%) | 5 (Herbicidal rate of 90% or more (almost completely withered)) | 5 (Herbicidal rate of 90% or more (almost completely withered)) | 5 (Herbicidal rate of 90% or more (almost completely withered)) | 5 (Herbicidal rate of 90% or more (almost completely withered)) | 4 (Herbicidal rate of 70% or more and less than 90%) | 5 (Herbicidal rate of 90% or more (almost completely withered)) | 5 (Herbicidal rate of 90% or more (almost completely withered)) | 3 (Herbicidal rate of 40% or more and less than 70%) | 1 (Herbicidal rate of 5% or more and less than 20%) | J: blackgrass, herbicidal effect rating (blackgrass [19]): 5 (Herbicidal rate of 90% or more (almost completely withered)); F: southern crabgrass, herbicidal effect (southern crabgrass [20]): 4 (Herbicidal rate of 70% or more and less than 90%); O: lambsquarters, herbicidal effect rating (lambsquarters [21]): 4 (Herbicidal rate of 70% or more and less than 90%); R: persian speedwell, herbicidal effect (persian speedwell [22]): 5 (Herbicidal rate of 90% or more (almost completely withered)); K: Italian ryegrass, herbicidal effect rating (Italian ryegrass [23]): 1 (Herbicidal rate of 5% or more and less than 20%); J: blackgrass, herbicidal effect (blackgrass [24]): 4 (Herbicidal rate of 70% or more and less than 90%); I: wild oat, herbicidal effect rating (wild oat [25]): 3 (Herbicidal rate of 40% or more and less than 70%) |
